Biological target: T1, catechol-O-methyltransferase (COMT) (Homo sapiens, UniProt P21964)
T1 construct: M51A variant) was expressed in HEK 293F cells
T1 sequence (P21964 52-271 limits assumed): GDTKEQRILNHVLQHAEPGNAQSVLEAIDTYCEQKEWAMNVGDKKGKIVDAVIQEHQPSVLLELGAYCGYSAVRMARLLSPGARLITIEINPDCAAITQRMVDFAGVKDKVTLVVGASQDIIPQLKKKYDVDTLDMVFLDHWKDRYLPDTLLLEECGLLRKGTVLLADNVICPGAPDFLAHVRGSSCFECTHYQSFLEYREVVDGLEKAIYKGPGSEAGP
Assay: COMT inhibition assay (HTRF, production of SAH from SAM)
Type: biochemical
Settings: table does not say MB-COMT or S-COMT
Procedure, shortened: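 Membranes from HEK293F cells expressing MB-COMT (M51A variant) incubated with 20 μM SAM and 1.5 μM dopamine plus compound (10 concentrations) for 40 min at 37 °C; S-COMT (Val158) at 0.15 ng/well used 100 μM dopamine, 15 min. SAH measured by HTRF against a standard curve; pIC50 from 4-parameter logistic fit.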

| SMILES | Activity range (pIC50) |
| --- | --- |
| CC1(C)Cn2cc(O)c(=O)cc2CN1Cc1ccccc1Cl [Example 65, 2-[(2-chlorophenyl)methyl]-7-hydroxy-3,3-dimethyl-1,4-dihydropyrido[1,2-a]pyrazin-8-one] | ++ (two plus signs (++) is associated with a pIC50 of from about 6 to 7) |
| O=c1cc2n(cc1O)CCN(Cc1cc([N+](=O)[O-])c(Cl)cc1Cl)C2 [Example 66, 2-[(2,4-dichloro-5-nitro-phenyl)methyl]-7-hydroxy-3,4-dihydro-1H-pyrido[1,2-a]pyrazin-8-one] | +++ (three plus signs (+++) is associated with a pIC50 of above about 7) |
| Cc1ccccc1C(C)N1CCn2cc(O)c(=O)cc2C1 (stereo not shown) [Example 67, 7-hydroxy-2-[1-(2-methylphenyl)ethyl]-1,2,3,4-tetrahydro-8H-pyrido[1,2-a]pyrazin-8-one] | +++ (three plus signs (+++) is associated with a pIC50 of above about 7) |
| CC(c1ccc(Cl)cc1)N1CCn2cc(O)c(=O)cc2C1 (stereo not shown) [Example 68, 2-[1-(4-chlorophenyl)ethyl]-7-hydroxy-1,2,3,4-tetrahydro-8H-pyrido[1,2-a]pyrazin-8-one] | ++ (two plus signs (++) is associated with a pIC50 of from about 6 to 7) |
| CC(c1cc(Cl)ccc1Cl)N1CCn2cc(O)c(=O)cc2C1 (stereo not shown) [Example 69, 2-[1-(2,5-dichlorophenyl)ethyl]-7-hydroxy-1,2,3,4-tetrahydro-8H-pyrido[1,2-a]pyrazin-8-one] | +++ (three plus signs (+++) is associated with a pIC50 of above about 7) |
| CC(c1ccc(C(F)(F)F)cc1)N1CCn2cc(O)c(=O)cc2C1 (stereo not shown) [Example 70, 7-hydroxy-2-{1-[4-(trifluoromethyl)phenyl]ethyl}-1,2,3,4-tetrahydro-8H-pyrido[1,2-a]pyrazin-8-one] | ++ (two plus signs (++) is associated with a pIC50 of from about 6 to 7) |
| Cc1cccc(C(C)N2CCn3cc(O)c(=O)cc3C2)c1 (stereo not shown) [Example 71, 7-hydroxy-2-[1-(3-methylphenyl)ethyl]-1,2,3,4-tetrahydro-8H-pyrido[1,2-a]pyrazin-8-one] | ++ (two plus signs (++) is associated with a pIC50 of from about 6 to 7) |
| CC(c1cccc(Cl)c1)N1CCn2cc(O)c(=O)cc2C1 (stereo not shown) [Example 72, 2-[1-(3-chlorophenyl)ethyl]-7-hydroxy-1,2,3,4-tetrahydro-8H-pyrido[1,2-a]pyrazin-8-one] | ++ (two plus signs (++) is associated with a pIC50 of from about 6 to 7) |
| O=c1cc2n(cc1O)CCN(C1CCc3c(Cl)cccc31)C2 (stereo not shown) [Example 73, 2-(4-chloro-2,3-dihydro-1H-inden-1-yl)-7-hydroxy-1,2,3,4-tetrahydro-8H-pyrido[1,2-a]pyrazin-8-one] | +++ (three plus signs (+++) is associated with a pIC50 of above about 7) |
| COc1cccc(OC)c1C(C)N1CCn2cc(O)c(=O)cc2C1 (stereo not shown) [Example 74, 2-[1-(2,6-dimethoxyphenyl)ethyl]-7-hydroxy-1,2,3,4-tetrahydro-8H-pyrido[1,2-a]pyrazin-8-one] | ++ (two plus signs (++) is associated with a pIC50 of from about 6 to 7) |
| CC(c1cc(F)cc(F)c1F)N1CCn2cc(O)c(=O)cc2C1 (stereo not shown) [Example 75, 7-hydroxy-2-[1-(2,3,5-trifluorophenyl)ethyl]-1,2,3,4-tetrahydro-8H-pyrido[1,2-a]pyrazin-8-one] | +++ (three plus signs (+++) is associated with a pIC50 of above about 7) |
| CC(c1ccccc1Cl)N1CCn2cc(O)c(=O)cc2C1 (stereo not shown) [Example 76, 2-[1-(2-chlorophenyl)ethyl]-7-hydroxy-1,2,3,4-tetrahydro-8H-pyrido[1,2-a]pyrazin-8-one] | +++ (three plus signs (+++) is associated with a pIC50 of above about 7) |
| CC(c1ccccc1OCc1ccccc1)N1CCn2cc(O)c(=O)cc2C1 (stereo not shown) [Example 77, 2-{1-[2-(benzyloxy)phenyl]ethyl}-7-hydroxy-1,2,3,4-tetrahydro-8H-pyrido[1,2-a]pyrazin-8-one] | +++ (three plus signs (+++) is associated with a pIC50 of above about 7) |
| CCCCC(c1ccccc1)N1CCn2cc(O)c(=O)cc2C1 (stereo not shown) [Example 78, 7-hydroxy-2-(1-phenylpentyl)-1,2,3,4-tetrahydro-8H-pyrido[1,2-a]pyrazin-8-one] | +++ (three plus signs (+++) is associated with a pIC50 of above about 7) |
| O=c1cc2n(cc1O)CCN(C1CCc3cccc(F)c31)C2 (stereo not shown) [Example 79, 2-(7-fluoro-2,3-dihydro-1H-inden-1-yl)-7-hydroxy-1,2,3,4-tetrahydro-8H-pyrido[1,2-a]pyrazin-8-one] | +++ (three plus signs (+++) is associated with a pIC50 of above about 7) |
| O=c1cc2n(cc1O)CCN(C1CC(c3ccccc3)Oc3ccccc31)C2 (stereo not shown) [Example 80, 7-hydroxy-2-(2-phenyl-3,4-dihydro-2H-chromen-4-yl)-1,2,3,4-tetrahydro-8H-pyrido[1,2-a]pyrazin-8-one] | ++ (two plus signs (++) is associated with a pIC50 of from about 6 to 7) |

| SMILES | Activity range (pIC50) |
| --- | --- |
| CC(c1cccc(F)c1)N1CCn2cc(O)c(=O)cc2C1 (stereo not shown) [Example 81, 2-[1-(3-fluorophenyl)ethyl]-7-hydroxy-1,2,3,4-tetrahydro-8H-pyrido[1,2-a]pyrazin-8-one] | ++ (two plus signs (++) is associated with a pIC50 of from about 6 to 7) |
| O=c1cc2n(cc1O)CCN(C(c1ccccc1)C1CCCC1)C2 (stereo not shown) [Example 82, 2-[cyclopentyl(phenyl)methyl]-7-hydroxy-1,2,3,4-tetrahydro-8H-pyrido[1,2-a]pyrazin-8-one] | +++ (three plus signs (+++) is associated with a pIC50 of above about 7) |
| COc1cccc(C(C)N2CCn3cc(O)c(=O)cc3C2)c1 (stereo not shown) [Example 83, 7-hydroxy-2-[1-(3-methoxyphenyl)ethyl]-1,2,3,4-tetrahydro-8H-pyrido[1,2-a]pyrazin-8-one] | ++ (two plus signs (++) is associated with a pIC50 of from about 6 to 7) |
| O=c1cc2n(cc1O)CCN(C1CCc3ccccc31)C2 (stereo not shown) [Example 84, 2-(2,3-dihydro-1H-inden-1-yl)-7-hydroxy-1,2,3,4-tetrahydro-8H-pyrido[1,2-a]pyrazin-8-one] | ++ (two plus signs (++) is associated with a pIC50 of from about 6 to 7) |
| CC(c1c(F)ccc(Cl)c1F)N1CCn2cc(O)c(=O)cc2C1 (stereo not shown) [Example 85, 2-[1-(3-chloro-2,6-difluorophenyl)ethyl]-7-hydroxy-1,2,3,4-tetrahydro-8H-pyrido[1,2-a]pyrazin-8-one] | +++ (three plus signs (+++) is associated with a pIC50 of above about 7) |
| O=c1cc2n(cc1O)CCN(C1CCCCc3ccccc31)C2 (stereo not shown) [Example 86, 7-hydroxy-2-(6,7,8,9-tetrahydro-5H-benzo[7]annulen-5-yl)-1,2,3,4-tetrahydro-8H-pyrido[1,2-a]pyrazin-8-one] | +++ (three plus signs (+++) is associated with a pIC50 of above about 7) |
| Cc1ccc(C)c(C(C)N2CCn3cc(O)c(=O)cc3C2)c1 (stereo not shown) [Example 87, 2-[1-(2,5-dimethylphenyl)ethyl]-7-hydroxy-1,2,3,4-tetrahydro-8H-pyrido[1,2-a]pyrazin-8-one] | +++ (three plus signs (+++) is associated with a pIC50 of above about 7) |
| O=c1cc2n(cc1O)CCN(C(Cc1ccccc1)c1ccccc1)C2 (stereo not shown) [Example 88, 2-(1,2-diphenylethyl)-7-hydroxy-1,2,3,4-tetrahydro-8H-pyrido[1,2-a]pyrazin-8-one] | +++ (three plus signs (+++) is associated with a pIC50 of above about 7) |
| CCC(c1ccccc1)N1CCn2cc(O)c(=O)cc2C1 (stereo not shown) [Example 89, 7-hydroxy-2-(1-phenylpropyl)-1,2,3,4-tetrahydro-8H-pyrido[1,2-a]pyrazin-8-one] | ++ (two plus signs (++) is associated with a pIC50 of from about 6 to 7) |
| O=c1cc2n(cc1O)CCN(C1CCCc3ccccc31)C2 (stereo not shown) [Example 90, 7-hydroxy-2-(1,2,3,4-tetrahydronaphthalen-1-yl)-1,2,3,4-tetrahydro-8H-pyrido[1,2-a]pyrazin-8-one] | +++ (three plus signs (+++) is associated with a pIC50 of above about 7) |
| COc1ccc2c(c1)C(N1CCn3cc(O)c(=O)cc3C1)CCC2 (stereo not shown) [Example 91, 7-hydroxy-2-(7-methoxy-1,2,3,4-tetrahydronaphthalen-1-yl)-1,2,3,4-tetrahydro-8H-pyrido[1,2-a]pyrazin-8-one] | +++ (three plus signs (+++) is associated with a pIC50 of above about 7) |
| Cc1cccc2c1CCC2N1CCn2cc(O)c(=O)cc2C1 (stereo not shown) [Example 92, 7-hydroxy-2-(4-methyl-2,3-dihdyro-1H-inden-1-yl)-1,2,3,4-tetrahydro-8H-pyrido[1,2-a]pyrazin-8-one] | +++ (three plus signs (+++) is associated with a pIC50 of above about 7) |
| CCCC(c1ccccc1)N1CCn2cc(O)c(=O)cc2C1 (stereo not shown) [Example 93, 7-hydroxy-2-(1-phenylbutyl)-1,2,3,4-tetrahydro-8H-pyrido[1,2-a]pyrazin-8-one] | ++ (two plus signs (++) is associated with a pIC50 of from about 6 to 7) |
| CC(c1ccc(C#N)cc1)N1CCn2cc(O)c(=O)cc2C1 (stereo not shown) [Example 94, 4-[1-(7-hydroxy-8-oxo-1,3,4,8-tetrahydro-2H-pyrido[1,2-a]pyrazin-2-yl)ethyl]benzonitrile] | ++ (two plus signs (++) is associated with a pIC50 of from about 6 to 7) |
| CC(c1cccc(C#N)c1)N1CCn2cc(O)c(=O)cc2C1 (stereo not shown) [Example 95, 3-[1-(7-hydroxy-8-oxo-1,3,4,8-tetrahydro-2H-pyrido[1,2-a]pyrazin-2-yl)ethyl]benzonitrile] | ++ (two plus signs (++) is associated with a pIC50 of from about 6 to 7) |

Source: patent US10934283B2, “COMT inhibiting methods and compositions” (LIEBER INSTITUTE FOR BRAIN DEVELOPMENT, priority 2015, dated 2021)
